In patent US20230365533A1, “BICYCLOHEPTANE PYRROLIDINE OREXIN RECEPTOR AGONISTS” (MERCK SHARP & DOHME CORP., priority 2021, published 2023):

Target: T1, human OX2R (Homo sapiens, UniProt O43614)
T1 construct: expressed in transfected cells; host or cells: CHO (Chinese hamster ovary) cells, grown under G418 selection
T1 sequence (O43614 1-444): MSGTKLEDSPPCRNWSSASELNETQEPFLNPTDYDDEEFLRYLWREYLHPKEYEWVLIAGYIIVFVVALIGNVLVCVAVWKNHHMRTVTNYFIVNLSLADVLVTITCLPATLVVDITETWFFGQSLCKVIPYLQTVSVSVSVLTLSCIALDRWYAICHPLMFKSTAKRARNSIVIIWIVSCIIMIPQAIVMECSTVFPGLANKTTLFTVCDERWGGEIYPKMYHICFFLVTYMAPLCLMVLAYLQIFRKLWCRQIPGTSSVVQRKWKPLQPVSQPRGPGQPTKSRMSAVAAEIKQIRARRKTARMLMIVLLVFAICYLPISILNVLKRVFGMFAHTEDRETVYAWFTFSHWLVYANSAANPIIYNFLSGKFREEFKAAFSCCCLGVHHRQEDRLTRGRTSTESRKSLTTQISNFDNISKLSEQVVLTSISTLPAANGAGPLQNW
Test: IPOne (IP-1) orexin receptor agonist assay in CHO cells expressing human OX2R
Format: cell-based
Conditions: IPOne assay, CHO cells expressing human OX2R, 2 hours incubation; read-out: hoX2R_IP IC50
Outline: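 CHO cells with human OX2R treated 2 h at 37 °C with 10-point ½-log compound dilutions in stimulation buffer; IP-1 accumulation read by HTRF (665/620 nm) after 60 min detection. EC50 from four-parameter fit; % effect versus a 1 uM reference agonist.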

SMILES | IC50 [nM]
CC(C)OC(=O)N1[C@H](C)C[C@H](NS(=O)(=O)C(F)F)[C@@H]1COC1CCC2(c3ncc(F)cn3)CC2C1 (stereo partly drawn) [Example 109, isopropyl (2R,3S,5R)-3-((difluoromethyl)sulfonamido)-2-(((6-(5-fluoropyrimidin-2-yl)bicyclo[4.1.0]heptan-3-yl)oxy)methyl)-5-methylpyrrolidine-1-carboxylate] | 3.5
CC(C)OC(=O)N1[C@H](C)C[C@H](NS(=O)(=O)CF)[C@@H]1COC1CCC2(c3ncc(F)cn3)CC2C1 (stereo partly drawn) [Example 111, isopropyl (2R,3S,5R)-3-((fluoromethyl)sulfonamido)-2-(((6-(5-fluoropyrimidin-2-yl)bicyclo[4.1.0]heptan-3-yl)oxy)methyl)-5-methylpyrrolidine-1-carboxylate] | 1
COC(=O)N1[C@H](C(F)F)C[C@H](NS(=O)(=O)C2CC2)[C@@H]1COC1CCC2(c3ncc(F)cn3)CC2C1 (stereo partly drawn) [Example 116, methyl (2R,3S,5S)-3-(cyclopropanesulfonamido)-5-(difluoromethyl)-2-(((6-(5-fluoropyrimidin-2-yl)bicyclo[4.1.0]heptan-3-yl)oxy)methyl)pyrrolidine-1-carboxylate] | 2.3
CCS(=O)(=O)N[C@H]1C[C@@H](C(F)F)N(C(=O)OC)[C@H]1COC1CCC2(c3ncc(F)cn3)CC2C1 (stereo partly drawn) [Example 117, methyl (2R,3S,5S)-5-(difluoromethyl)-3-(ethylsulfonamido)-2-(((6-(5-fluoropyrimidin-2-yl)bicyclo[4.1.0]heptan-3-yl)oxy)methyl)pyrrolidine-1-carboxylate] | 1.2
CC(C)OC(=O)N1[C@H](C(F)F)C[C@H](NS(C)(=O)=O)[C@@H]1CO[C@H]1CC[C@@]2(c3ncc(F)cn3)C[C@H]2C1 [Example 119, isopropyl (2R,3S,5S)-5-(difluoromethyl)-2-((((1S,3S,6R)-6-(5-fluoropyrimidin-2-yl)bicyclo[4.1.0]heptan-3-yl)oxy)methyl)-3-(methylsulfonamido)pyrrolidine-1-carboxylate] | 1.4
COC(=O)N1[C@H](C(F)F)C[C@H](NS(=O)(=O)C(C)C)[C@@H]1COC1CCC2(c3ncc(F)cn3)CC2C1 (stereo partly drawn) [Example 120, methyl (2R,3S,5S)-5-(difluoromethyl)-2-(((6-(5-fluoropyrimidin-2-yl)bicyclo[4.1.0]heptan-3-yl)oxy)methyl)-3-((1-methylethyl)sulfonamido)pyrrolidine-1-carboxylate] | 2.4
CC(C)OC(=O)N1CCC[C@H](NS(=O)(=O)C(F)F)[C@@H]1CO[C@H]1CC[C@@]2(c3ncc(F)cn3)C[C@H]2C1 [Example 121, isopropyl (2R,3S)-3-((difluoromethyl)sulfonamido)-2-((((1S,3S,6R)-6-(5-fluoropyrimidin-2-yl)bicyclo[4.1.0]heptan-3-yl)oxy)methyl)piperidine-1-carboxylate] | 0.86
CC(C)OC(=O)N1CCC[C@H](NS(=O)(=O)C2CC2)[C@@H]1COC1CCC2(c3ncc(F)cn3)CC2C1 (stereo partly drawn) [Example 122, isopropyl (2R,3S)-3-(cyclopropanesulfonamido)-2-(((6-(5-fluoropyrimidin-2-yl)bicyclo[4.1.0]heptan-3-yl)oxy)methyl)piperidine-1-carboxylate] | 6.1
CC(C)OC(=O)N1CCC[C@H](NS(=O)(=O)C(F)(F)F)[C@@H]1COC1CC[C@@]2(c3ncc(F)cn3)CC2C1 (stereo partly drawn) [Example 123, isopropyl (2R,3S)-2-(((6-(5-fluoropyrimidin-2-yl)bicyclo[4.1.0]heptan-3-yl)oxy)methyl)-3-((trifluoromethyl)sulfonamido)piperidine-1-carboxylate] | 4.1
CCS(=O)(=O)N[C@H]1CCCN(C(=O)OC(C)C)[C@H]1COC1CC[C@@]2(c3ncc(F)cn3)CC2C1 (stereo partly drawn) [Example 126, isopropyl (2R,3S)-3-(ethylsulfonamido)-2-(((6-(5-fluoropyrimidin-2-yl)bicyclo[4.1.0]heptan-3-yl)oxy)methyl)piperidine-1-carboxylate] | 3.3
